# Assay results published in patent US20110059983A1, “USE OF SUBSTITUTED OXINDOLE DERIVATIVES FOR THE TREATMENT AND PROPHYLAXIS OF PAIN” (Abbott GmbH & Co. KG, priority 2009, published 2011).
# System: Chung model (spinal nerve ligation rats)
# Experiment: Tactile allodynia test after spinal nerve ligation (SNL, Chung model)
# Assay type: in vivo, rat
# Details: 3, 10 and 30 mg/kg po in saline, administered 1 hour prior to the tactile allodynic test
# Description: SNL surgery: For spinal nerve ligation surgery, rats were anesthetized with isoflurane gas. […] The hair at the surgical site was clipped and disinfected with alcohol and betadine. Body temperature was maintained during surgery by using a heating pad. A skin incision (approximately 3 cm) was made on the dorsal midline, using the level of the iliac crests as the midpoint of the incision. At the mid-sacral region, on the left side of the vertebral column (in the sagittal plane), a #15 scalpel blade was used to cut the muscles close to the vertebral body until the blade hits the sacrum bone. A retractor system was used to expose the area from the sacro-iliac rim to about 2 cm of the lateral vertebral column. Using rongeurs, the facet joint was removed followed by the L6 transverse process. A glass hook was used to isolate and tightly ligate L5 and L6 with 6-0 silk suture. The muscle was then sutured using 4-0 silk suture. The skin was closed using wound clips.
# Tactile allodynia test: The rats were placed on testing stands with screens under their feet. von Frey filaments eliciting various forces (up to 15 g) were applied to the paws, starting with a filament of 4.31 g and proceeding with alternating lighter and heavier filaments. The measured variable is the 50% withdrawal threshold (PWT) and is calculated from the up-down formula in Chaplan et al. 1994.
structure (smiles),measurement,value
CCOc1ncccc1C1(NC(=O)N2CCN(C3CCN(C)CC3)CC2)C(=O)N(S(=O)(=O)c2ccc(OC)cc2OC)c2ccc(Cl)cc21 (stereo not shown) [compound 1],50% paw withdrawal threshold (PWT),dose-dependently increased the withdrawal threshold
